From patent US20260077069A1, “COMBINATIONS OF CONTRAST AGENTS” (BAYER AKTIENGESELLSCHAFT, priority 2022, published 2026)

What was measured:
[1] = Relaxivity measurements at 1.41 T in water and human plasma; assay type: physicochemical; conditions: 37° C., normalized to Gd
Experimental: Relaxivity measurements at 1.41 T were performed using a MiniSpec mq60 spectrometer (Bruker Analytik, Karlsruhe, Germany) operating at a resonance frequency of 60 MHz and a temperature of 37° C. The T1 relaxation times were determined using the standard inversion recovery (IR) method with a fixed relaxation delay of at least 5×T1. The variable inversion time (TI) was calculated automatically by the standard software of the MiniSpec mq60 (8 steps). The T2 measurements were performed by using a Carr-Purcell-Meiboom-Gill (CPMG) pulse sequence, applying a relaxation delay of at least 5×T1.
Each relaxivity measurement was performed using three different Gd concentrations (3 concentrations between 0.05 and 2 mM). The T1 and T2 relaxation times of the example compounds were measured in water and human plasma. Human plasma preparation: For each experiment fresh blood was taken from a volunteer using 10 mL citrate-tubes (Sarstedt S-Monovette 02.1067.001, 10 mL, Citrate). The 10 mL citrate-tubes were carefully inverted 10 times to mix blood and anticoagulant and centrifuged for 15 min at 1811 g at RT (Eppendorf, Centrifuge 5810R).
The relaxivities ri (where i=1, 2) were calculated based on the measured relaxation rates Ri in water and plasma:
where Ri(0) represent the relaxation rate of the respective solvent and CGd the concentration of the compound normalized to the Gadolinium. The Gadolinium concentrations of the investigated solutions were verified by Inductively Coupled Plasma Mass Spectrometry (ICP-MS Agilent 7500a, Waldbronn, Germany).

[2] = test system: freshly isolated rat hepatocytes; assay: Uptake into freshly isolated rat hepatocytes; assay type: cell-based; conditions: uptake with OATP1B1/1B3 inhibitor Rifampicine 1:1, each 100 uM
Experimental: Freshly isolated rat hepatocytes were received as described before (Papeleu P. et al. (2006) Isolation of Rat Hepatocytes. In: Phillips I. R., Shephard E. A. (eds) Cytochrome P450 Protocols. Methods in Molecular Biology, vol 320. Humana Press, Totowa, NJ. https://doi.org/10.1385/1-59259-998-2:229). The rat hepatocytes were incubated (2.5·10^5 cells/well) for 2.5 to 4 h in collagen coated 24-well plates (Fa. Beckton Dickinson Biocoat, cell environments, Collagen I Cellware) in Williams E-medium (Fa. Sigma W1878) in an incubator (37° C., 5% CO2 and […]). After incubation the adherent hepatocytes were washed once with 37° C. Hepes carbonate transport buffer (500 μL/well). The test items and RC3 were prepared from stock solutions (180 to 500 mM concentration) in Hepes carbonate transport buffer at pH 7.4 to reach a final concentration of 100 μmol Gd/L. The specific uptake of the test item or RC3 into rat hepatocytes via OATP1B1 and OATP1B3 was challenged using a known OATP1B1/1B3 inhibitor (Rifampicine, Fa. Sigma R3501, test item and inhibitor 1:1 each 100 µM final concentration). The prepared rat hepatocyte plates were incubated with test solutions (500 μL/well) at 37° C. for 10 min using a thermoshaker (Fa. Grant Bio, PHMP). Triplicates were performed for each test item. After incubating the cells were washed once with cold PBS buffer (Fa. Gibco, Dulbeccos PBS (+)). After washing the intact hepatocytes were lysed by addition of 500 μL cold 0.01% Triton-X 100 in Millipore water for 1 h. The strongly hypo-osmolar water led to cell membrane rupture and the release of the intracellular Gd-compound. After 1 h 500 μL of 10 nM Terbium ICP-MS standard was added in 2% nitric acid and 0.01% Triton 100 before the Gadolinium concentrations in the lysate were measured using ICP-MS (Agilent 8900, singleQuad, integr. Time 0.3 s, no gas, 5 replicates, Gd m/z 157, Tb m/z 159). As a reference standard RC3 is used in the same well plate. The hepatocyte uptake of the test compound is calculated relative to RC3 (resulting in the unit % of RC3).

Structure (SMILES) | r1 human plasma [1] [L/mmol/s] | r1 water [1] [L/mmol/s] | Inhibition Rifampicine [2] [% inhibition]
CC(C(=O)NCC(=O)NCC(CNC(=O)CNC(=O)C(C)N1CCN(CC(=O)[O-])CCN(CC(=O)[O-])CCN(CC(=O)[O-])CC1)C(=O)NCCN(CCNC(=O)C(CNC(=O)CNC(=O)C(C)N1CCN(CC(=O)[O-])CCN(CC(=O)[O-])CCN(CC(=O)[O-])CC1)CNC(=O)CNC(=O)C(C)N1CCN(CC(=O)[O-])CCN(CC(=O)[O-])CCN(CC(=O)[O-])CC1)C(=O)CNC(=O)C(C)N1CCN(CC(=O)[O-])CCN(CC(=O)[O-])CCN(CC(=O)[O-])CC1)N1CCN(CC(=O)[O-])CCN(CC(=O)[O-])CCN(CC(=O)[O-])CC1.[Gd+3].[Gd+3].[Gd+3].[Gd+3].[Gd+3] (stereo not shown) [Compound 1] | 13.0 | 11.1 | –
CC(C(=O)NCC(=O)NCC(CNC(=O)CNC(=O)C(C)N1CCN(CC(=O)[O-])CCN(CC(=O)[O-])CCN(CC(=O)[O-])CC1)C(=O)NCCN(CCNC(=O)C(CNC(=O)CNC(=O)C(C)N1CCN(CC(=O)[O-])CCN(CC(=O)[O-])CCN(CC(=O)[O-])CC1)CNC(=O)CNC(=O)C(C)N1CCN(CC(=O)[O-])CCN(CC(=O)[O-])CCN(CC(=O)[O-])CC1)C(=O)C(CNC(=O)CNC(=O)C(C)N1CCN(CC(=O)[O-])CCN(CC(=O)[O-])CCN(CC(=O)[O-])CC1)CNC(=O)CNC(=O)C(C)N1CCN(CC(=O)[O-])CCN(CC(=O)[O-])CCN(CC(=O)[O-])CC1)N1CCN(CC(=O)[O-])CCN(CC(=O)[O-])CCN(CC(=O)[O-])CC1.[Gd+3].[Gd+3].[Gd+3].[Gd+3].[Gd+3].[Gd+3] (stereo not shown) [Compound 2] | 13.9 | 12.1 | –
C[C@H](C(=O)NCC(=O)N1CCN(C(=O)CNC(=O)[C@@H](C)N2CCN(CC(=O)[O-])CCN(CC(=O)[O-])CCN(CC(=O)[O-])CC2)CC(C(=O)NCCN(CCNC(=O)C2CN(C(=O)CNC(=O)[C@@H](C)N3CCN(CC(=O)[O-])CCN(CC(=O)[O-])CCN(CC(=O)[O-])CC3)CCN(C(=O)CNC(=O)[C@@H](C)N3CCN(CC(=O)[O-])CCN(CC(=O)[O-])CCN(CC(=O)[O-])CC3)C2)C(=O)C2CN(C(=O)CNC(=O)[C@@H](C)N3CCN(CC(=O)[O-])CCN(CC(=O)[O-])CCN(CC(=O)[O-])CC3)CCN(C(=O)CNC(=O)[C@@H](C)N3CCN(CC(=O)[O-])CCN(CC(=O)[O-])CCN(CC(=O)[O-])CC3)C2)C1)N1CCN(CC(=O)[O-])CCN(CC(=O)[O-])CCN(CC(=O)[O-])CC1.[Gd+3].[Gd+3].[Gd+3].[Gd+3].[Gd+3].[Gd+3] [Compound 5] | 14.3 | 13.0 | –
CC(C(=O)NCC(=O)N1CCN(C(=O)CNC(=O)C(C)N2CCN(CC(=O)[O-])CCN(CC(=O)[O-])CCN(CC(=O)[O-])CC2)CCN(C(=O)CNC(=O)C(C)N2CCN(CC(=O)[O-])CCN(CC(=O)[O-])CCN(CC(=O)[O-])CC2)CCN(C(=O)CNC(=O)C(C)N2CCN(CC(=O)[O-])CCN(CC(=O)[O-])CCN(CC(=O)[O-])CC2)CC1)N1CCN(CC(=O)[O-])CCN(CC(=O)[O-])CCN(CC(=O)[O-])CC1.[Gd+3].[Gd+3].[Gd+3].[Gd+3] (stereo not shown) [Compound 7] | 12.1 | 10.8 | –
CC(C(=O)NCC(=O)NCC(NC(=O)CNC(=O)C(C)N1CCN(CC(=O)[O-])CCN(CC(=O)[O-])CCN(CC(=O)[O-])CC1)C(=O)N1CC23CN(C(=O)C(CNC(=O)CNC(=O)C(C)N4CCN(CC(=O)[O-])CCN(CC(=O)[O-])CCN(CC(=O)[O-])CC4)NC(=O)CNC(=O)C(C)N4CCN(CC(=O)[O-])CCN(CC(=O)[O-])CCN(CC(=O)[O-])CC4)CC2(C1)CN(C(=O)C(CNC(=O)CNC(=O)C(C)N1CCN(CC(=O)[O-])CCN(CC(=O)[O-])CCN(CC(=O)[O-])CC1)NC(=O)CNC(=O)C(C)N1CCN(CC(=O)[O-])CCN(CC(=O)[O-])CCN(CC(=O)[O-])CC1)C3)N1CCN(CC(=O)[O-])CCN(CC(=O)[O-])CCN(CC(=O)[O-])CC1.[Gd+3].[Gd+3].[Gd+3].[Gd+3].[Gd+3].[Gd+3] (stereo not shown) [Compound 8] | 14.6 | 12.5 | –
O=C([O-])CN1CCN(CC(=O)[O-])CCN(CC(=O)N2CCN(C(=O)CN3CCN(CC(=O)[O-])CCN(CC(=O)[O-])CCN(CC(=O)[O-])CC3)CC(C(=O)N3CC4CN(C(=O)C5CN(C(=O)CN6CCN(CC(=O)[O-])CCN(CC(=O)[O-])CCN(CC(=O)[O-])CC6)CCN(C(=O)CN6CCN(CC(=O)[O-])CCN(CC(=O)[O-])CCN(CC(=O)[O-])CC6)C5)CC(C3)N4)C2)CCN(CC(=O)[O-])CC1.[Gd+3].[Gd+3].[Gd+3].[Gd+3] [Compound 9] | – | 7.4 | –
O=C([O-])CN1CCN(CC(=O)[O-])CCN(CC(=O)NCC(CNC(=O)CN2CCN(CC(=O)[O-])CCN(CC(=O)[O-])CCN(CC(=O)[O-])CC2)(CNC(=O)CN2CCN(CC(=O)[O-])CCN(CC(=O)[O-])CCN(CC(=O)[O-])CC2)CNC(=O)CN2CCN(CC(=O)[O-])CCN(CC(=O)[O-])CCN(CC(=O)[O-])CC2)CCN(CC(=O)[O-])CC1.[Gd+3].[Gd+3].[Gd+3].[Gd+3] [Compound 10] | 9.7 | 7.3 | –
CCOCCOc1ccc(CC(C(=O)[O-])N2CCN(CC(=O)[O-])CCN(C(CC)C(=O)O)CCN(CC(=O)[O-])CC2)cc1.[Gd+3] (stereo not shown) [Compound 13] | 7.4 | 4.5 | 99
CCCCOc1ccc(CC(C(=O)[O-])N2CCN(CC(=O)[O-])CCN(CC(=O)[O-])CCN(CC(=O)O)CC2)cc1.[Gd+3] (stereo not shown) [Compound 14] | 13.3 | 4.3 | 98
CCOCCOCCOc1ccc(CCC[C@@H](C(=O)O)N2CCN([C@@H](CO)C(=O)[O-])CCN([C@@H](CO)C(=O)[O-])CCN([C@@H](CO)C(=O)[O-])CC2)cc1.[Gd+3] [Compound 15] | 8.7 | 5.1 | 94
CCOCCOCCOc1ccc(CCC[C@H](C(=O)O)N2CCN([C@H](CO)C(=O)[O-])CCN([C@H](CO)C(=O)[O-])CCN([C@H](CO)C(=O)[O-])CC2)cc1.[Gd+3] [Compound 16] | 9.0 | 5.3 | 92
CCCC(C(=O)[O-])N1CCN(CC(=O)[O-])CCN(C(Cc2ccc(OCC)cc2)C(=O)O)CCN(CC(=O)[O-])CC1.[Gd+3] (stereo not shown) [Compound 17] | 7.5 | 4.4 | 99
CCCCOc1ccc(CCCC(C(=O)O)N2CCN(CC(=O)O)CCN(CC(=O)O)CCN(CC(=O)O)CC2)cc1 (stereo not shown) [Compound 18] | 15.8 | 4.4 | 94
CCCCOc1cccc(CCC[C@@H](C(=O)O)N2CCN([C@@H](CO)C(=O)[O-])CCN([C@@H](CO)C(=O)[O-])CCN([C@@H](CO)C(=O)[O-])CC2)c1.[Gd+3] [Compound 19] | 18.0 | 4.9 | 90
CCOCCOCCOc1ccc(CC(C(=O)[O-])N2CCN(CC(=O)[O-])CCN(C(CC)C(=O)[O-])CCN(CC(=O)O)CC2)cc1.[Gd+3] (stereo not shown) [Compound 20] | 6.9 | 4.8 | 97
O=C([O-])CN1CCN(CC(=O)[O-])CCN(C(Cc2ccc(OCC(F)(F)C(F)F)cc2)C(=O)[O-])CCN(CC(=O)O)CC1.[Gd+3] (stereo not shown) [Compound 21] | 10.8 | 3.5 | 90
